Measurements taken from US20230002400A1, “AMORPHOUS FORM OF NITROGEN-CONTAINING TRICYCLIC COMPOUND AND USE THEREOF” (SUNSHINE LAKE PHARMA CO., LTD., priority 2019, published 2023).

Key:
[1] = Stability test: light test (light box with UV); assay type: physicochemical; details: for Appearance / Purity (%): Light (with UV)
Protocol: (3) Light test: A batch of the test sample was taken into the flat weighing bottle, divided into ≤5 mm thick thin layer. The sample was placed in an opened light box (with UV) at the illuminance 4500±5001x, UV light ≥0.7w/m2 for 30 days. The sample was then taken on days 5, 13, and 30, and the change of the sample's color was observed. The purity of the sample was detected by HPLC, and the structure of the sample was analyzed by X-ray powder diffraction, the change of X-ray powder diffraction in light test was substantially shown in FIG. 6.

[2] = Stability test: high temperature test (60° C.); assay type: physicochemical
Protocol: (1) High temperature test: A batch of the test sample was taken into a flat weighing bottle, divided into ≤5 mm thick thin layer. The sample was placed at 60° C. for 30 days. The sample was then taken on days 5, 10, and 30, and the change of the sample's color was observed. The purity of the sample was detected by HPLC, and the structure of the sample was analyzed by X-ray powder diffraction, the change of X-ray powder diffraction in high temperature test was substantially shown in FIG. 4.

[3] = Stability test: high humidity test (25° C., RH 90% ±5%); assay type: physicochemical; details: for Appearance / Purity (%): High humidity 25° C., RH 90% ±5%
Protocol: (2) High humidity test: A batch of the test sample was taken into the flat weighing bottle, divided into <5 mm thick thin layer. The sample was placed at 25° C. and RH for 90% ±5% for 30 days. The sample was then taken on days 5, 10, and 30, and the change of the sample's color was observed. The purity of the sample was detected by HPLC, and the structure of the sample was analyzed by X-ray powder diffraction, the change of X-ray powder diffraction in high humidity test was substantially shown in FIG. 5.

[4] = Hygroscopicity test by dynamic moisture adsorption device; assay type: physicochemical; details: relative humidity of 80%
Protocol: The description of the hygroscopic feature and the definition of the hygroscopic weight gain (Chinese Pharmacopoeia 2015 edition, Appendix 9103 Guidelines for Drug Hygroscopicity Tests, experimental conditions: 25° C. ±1° C., 80% ±2% relative humidity) are as described in the table below.
An appropriate amount of the test sample was taken and the hygroscopicity of the test sample was tested by dynamic moisture adsorption device. […] That is, the amorphous form of the invention is not easily deliquescent under the influence of high humidity.

[5] = Pharmacokinetic test in Beagle dogs, oral capsules; assay type: in vivo; details: dog, plasma, male Beagle dogs, 5 mg/kg orally
Protocol: The amorphous form of compound having Formula (I) named 2-((5-cyclopropyl-3-(2,6-di chl orophenyl)i soxazol-4-yl)methoxy)-10H-spiro[b enzo[6,7]oxepino[3,2-b]pyridine-11,1′-cyclopropane]-7-carboxylic acid was filled into capsules, which was for oral administration.
8-12 kg Male Beagle dogs were given 5 mg/kg test sample orally, with 3 animals in each group. Blood was taken at time points of 0.25, 0.5, 1.0, 2.0, 4.0, 6.0, 8.0, 12 and 24 h. Standard curve was plotted based on concentrations of the samples in a suitable range, the concentration of the test sample in the plasma sample was measured and quantified by AB SCIEX API4000 LC-MS/MS at MRM mode. Pharmacokinetic parameters were calculated according to drug concentration -time curve using a noncompartmental model by WinNonLin 6.3 software.

In the case of `O=C(O)c1ccc2c(c1)Oc1ccc(OCc3c(-c4c(Cl)cccc4Cl)noc3C3CC3)nc1C1(CC1)C2` [The amorphous form, 2-((5-cyclopropyl-3-(2,6-dichlorophenyl)isoxazol-4-yl)methoxy)-10H-spiro[benzo[6,7]oxepino[3,2-b]pyridine-11,1′-cyclopropane]-7-carboxylic acid], the Appearance ([1]; 5 Days) was “White”, the “Purity (%)” value ([1]; 5 Days, HPLC) was 99.62% and the Appearance ([1]; 13 days) was “White”. The “Purity (%)” value ([1]; 13 days, HPLC) was 99.63%, the Appearance ([1]; 30 days) was “White” and the “Purity (%)” value ([1]; 30 days, HPLC) was 99.57%. For the same compound, the “changes of appearance, chemical purity and crystal form” value (from here on “changes of appearance”) ([1]; light, up to 30 days, HPLC, XRPD) was “no obvious changes”, the Appearance ([2]; 0 Day (start of stability test)) was “White” and the “Purity (%)” value ([2]; 0 Day (start of stability test), HPLC) was 99.66%. The Appearance ([2]; High temperature 60° C., 5 Days) was “White”, the “Purity (%)” value ([2]; High temperature 60° C., 5 Days, HPLC) was 99.65% and the Appearance ([2]; High temperature 60° C., 10 Days) was “White”. For the same compound, the “Purity (%)” value ([2]; High temperature 60° C., 10 Days, HPLC) was 99.48%, the Appearance ([2]; High temperature 60° C., 30 Days) was “White” and the “Purity (%)” value ([2]; High temperature 60° C., 30 Days, HPLC) was 99.60%. For the same compound, the “changes of appearance” value ([2]; high temperature, up to 30 days, HPLC, XRPD) was “no obvious changes”, the Appearance ([3]; 5 Days) was “White” and the “Purity (%)” value ([3]; 5 Days, HPLC) was 99.64%. For the same compound, the Appearance ([3]; 10 Days) was “White”, the “Purity (%)” value ([3]; 10 Days, HPLC) was 99.61% and the Appearance ([3]; 30 Days) was “White”. The “Purity (%)” value ([3]; 30 Days, HPLC) was 99.63%, the “changes of appearance” value ([3]; high humidity, up to 30 days, HPLC, XRPD) was “no obvious changes” and the hygroscopic weight gain ([4]; after equilibrium) was “less than 2%”. The hygroscopic feature ([4]; criterion for the hygroscopic weight gain) was “slightly hygroscopic”, the AUC(0-t) [5] was 765 ng·h/mL and the Cmax [5] was 268 ng/mL. The Tmax [5] was 2 h.
